# System: xenogeneic mouse graft versus host disease (GVHD) model
# Details: in vivo
# Protocol: FIG. 33 depicts a schematic for treatment of a xenogeneic mouse graft versus host disease (GVHD) model with a ruxolitinib and activated Treg cells regimen. PBMC=peripheral blood mononuclear cells.
# A xenogeneic mouse graft versus host disease (GVHD) model was treated with a ruxolitinib and activated CB Treg cells regimen, as depicted in FIG. 33. NSG mice underwent sublethal irradiation on day −1 followed by injection of 1×10^7 donor peripheral blood (PB) mononuclear cells (MNCs) on day 0. Oral ruxolitinib at 1 mg daily was fed continuously to the mice in the presence or absence of 1×10^7 CB Treg cells, tagged with CellTrace™ Violet dye (ThermoFisher), administered on days +4, +7, +11, +18. Mice were followed every other day for weight, GVHD score and survival. Serial blood draws were performed to analyze for cell compartment and cytokine assays.
compound,measurement,value
N#CC[C@H](C1CCCC1)n1cc(-c2ncnc3[nH]ccc23)cn1 [ruxolitinib],CB Treg persistence,improved
